Like-named read-outs stand apart in the source and are kept apart here. Non-standard residues stand in square brackets, D forms with d. Residues, ends and D or L forms follow the SMILES beside them. *: point of attachment. X1 = O=C(O)c1cc(C(=O)*)ccc1-c1c2ccc(=O)cc-2oc2cc(O)ccc12; Pro(trans-4-guanidino) = N=C(N)N[C@H]1CN[C@H](C(=O)O)C1; Propyl(3-guanidino) = N=C(N)NCCC*; Hyp = O=C(O)[C@@H]1C[C@@H](O)CN1; Isobutyl = CC(C)C*
Experiments:
S. aureus RN 4220 = assay: MIC, broth microdilution (CLSI); assay type: cell-based
Procedure: (§1) The minimum inhibitory concentration (MIC) of the peptides (in uM/ml) and control antibiotics (vancomycin and gentamicin) in μg/mL, were determined using the broth microdilution method according to the guidelines of the Clinical and Laboratory Standards Institute (CLSI) guidelines. See CLSI. 2007. Methods for dilution antimicrobial susceptibility tests for bacteria that grow aerobically; approved standard M7-A7. CLSI, Wayne, Pa.

S. flexneri 1a = assay: MIC, broth microdilution (CLSI); assay type: cell-based; settings: enteric pathogens
Procedure: as §1

E. faecium 700221 [1] = system: E. faecium 700221
S. aureus NRS 384 [2] = system: S. aureus NRS 384
K. pneumoniae 1706 [3] = system: K. pneumoniae 1706
K. pneumonia NR 41920 [4] = system: K. pneumonia NR 41920
K. pneumonia NR 41928 [5] = system: K. pneumonia NR 41928
A. baumannii 1605 [6] = system: A. baumannii 1605
P. aeruginosa 50573 [7] = system: P. aeruginosa 50573
E. cloacae 1134 [8] = system: E. cloacae 1134
S. aureus NRS 383 [9] = system: S. aureus NRS 383
S. aureus NRS 382 [10] = system: S. aureus NRS 382
S. aureus ATCC 6538 [11] = system: S. aureus ATCC 6538
S. epidermidis NRS 101 [12] = system: S. epidermidis NRS 101
VRSA 5 [13] = system: VRSA 5
VRSA 10 [14] = system: VRSA 10
P. aeruginosa 48982 [15] = system: P. aeruginosa 48982
P. aeruginosa 31040 [16] = system: P. aeruginosa 31040
P. aeruginosa 31041 [17] = system: P. aeruginosa 31041
A. baumannii 1747 [18] = system: A. baumannii 1747
A baumannii 19606 [19] = system: A baumannii 19606
L. monocytogenes 191112 [20] = system: L. monocytogenes 191112
S. enteritidis [21] = system: S. enteritidis
E. coli 21922 [22] = system: E. coli 21922
S. typhimurium LT2 [23] = system: S. typhimurium LT2
E. faecium 700221 [24] = assay: microbe, parasite or virus in culture; settings: Enterococcus faecium
S. aureus NRS 384 [25] = assay: microbe, parasite or virus in culture; settings: Staphylococcus aureus, NRS384
K. pneumoniae 1706 [26] = assay: microbe, parasite or virus in culture; settings: Klebsiella pneumoniae
K. pneumonia NR 41920 [27] = assay: microbe, parasite or virus in culture; settings: Klebsiella pneumoniae, NR41920
K. pneumonia NR 41928 [28] = assay: microbe, parasite or virus in culture; settings: Klebsiella pneumoniae, NR41928
A. baumannii 1605 [29] = assay: microbe, parasite or virus in culture; settings: Acinetobacter baumannii
P. aeruginosa 50573 [30] = assay: microbe, parasite or virus in culture; settings: Pseudomonas aeruginosa
E. cloacae 1134 [31] = assay: microbe, parasite or virus in culture; settings: Enterobacter cloacae
S. aureus NRS 383 [32] = assay: microbe, parasite or virus in culture; settings: Staphylococcus aureus, NRS383
S. aureus NRS 382 [33] = assay: microbe, parasite or virus in culture; settings: Staphylococcus aureus, NRS382
S. aureus ATCC 6538 [34] = assay: microbe, parasite or virus in culture; settings: Staphylococcus aureus, ATCC6538
S. epidermidis NRS 101 [35] = assay: microbe, parasite or virus in culture; settings: Staphylococcus epidermidis, NRS101
VRSA 5 [36] = assay: microbe, parasite or virus in culture; settings: Staphylococcus aureus
VRSA 10 [37] = assay: microbe, parasite or virus in culture; settings: Staphylococcus aureus
P. aeruginosa 48982 [38] = assay: microbe, parasite or virus in culture; settings: Pseudomonas aeruginosa
P. aeruginosa 31040 [39] = assay: microbe, parasite or virus in culture; settings: Pseudomonas aeruginosa
P. aeruginosa 31041 [40] = assay: microbe, parasite or virus in culture; settings: Pseudomonas aeruginosa
A. baumannii 1747 [41] = assay: microbe, parasite or virus in culture; settings: Acinetobacter baumannii
A baumannii 19606 [42] = assay: microbe, parasite or virus in culture; settings: Acinetobacter baumannii
L. monocytogenes 191112 [43] = assay: microbe, parasite or virus in culture; settings: Listeria monocytogenes
S. enteritidis [44] = assay: microbe, parasite or virus in culture; settings: Salmonella enterica
E. coli 21922 [45] = assay: microbe, parasite or virus in culture; settings: Escherichia coli
S. typhimurium LT2 [46] = assay: microbe, parasite or virus in culture; settings: Salmonella enterica

Measured: MIC

gentamicin
0.5 µM: S. aureus RN 4220 | S. flexneri 1a | S. aureus NRS 384 [2]; S. aureus NRS 384, ESKAPE pathogens | E. cloacae 1134 [8]; E. cloacae 1134, ESKAPE pathogens | S. aureus NRS 382 [10]; S. aureus NRS 382 | VRSA 5 [13] | VRSA 10 [14] | L. monocytogenes 191112 [20]; L. monocytogenes 191112, enteric pathogens | S. typhimurium LT2 [23]; S. typhimurium LT2, enteric pathogens
0.25 µM: P. aeruginosa 50573 [7]; P. aeruginosa 50573, ESKAPE pathogens | A. baumannii 1747 [18]; A. baumannii 1747 | S. enteritidis [21]; S. enteritidis, enteric pathogens
32 µM: S. epidermidis NRS 101 [12]; S. epidermidis NRS 101 | P. aeruginosa 31041 [17]; P. aeruginosa 31041
16 µM: P. aeruginosa 31040 [16]; P. aeruginosa 31040 | A baumannii 19606 [19]; A baumannii 19606
1 µM: K. pneumonia NR 41920 [4]; K. pneumonia NR 41920, ESKAPE pathogens | K. pneumonia NR 41928 [5]; K. pneumonia NR 41928, ESKAPE pathogens
0.125 µM: S. aureus ATCC 6538 [11]; S. aureus ATCC 6538
>32 µM: E. faecium 700221 [1]; E. faecium 700221, ESKAPE pathogens | A. baumannii 1605 [6]; A. baumannii 1605, ESKAPE pathogens | S. aureus NRS 383 [9]; S. aureus NRS 383 | P. aeruginosa 48982 [15]; P. aeruginosa 48982
2 µM: K. pneumoniae 1706 [3]; K. pneumoniae 1706, ESKAPE pathogens | E. coli 21922 [22]; E. coli 21922, enteric pathogens

CC(C)CO[C@@H]1C[C@@H](C(=O)N2C[C@H](NC(=N)N)C[C@H]2C(=O)N2C[C@H](NC(=N)N)C[C@H]2C(=O)N2C[C@H](OCC(C)C)C[C@H]2C(=O)N2C[C@H](NC(=N)N)C[C@H]2C(=O)N2C[C@H](NC(=N)N)C[C@H]2C(=O)N2C[C@H](OCC(C)C)C[C@H]2C(=O)N2C[C@H](NC(=N)N)C[C@H]2C(=O)N2C[C@H](NC(=N)N)C[C@H]2C(=O)N2C[C@H](OCC(C)C)C[C@H]2C(=O)N2C[C@H](NC(=N)N)C[C@H]2C(=O)N2C[C@H](NC(=N)N)C[C@H]2C(=O)N2C[C@H](OCC(C)C)C[C@H]2C(N)=O)N(C(=O)CNC(=O)c2ccc(-c3c4ccc(=O)cc-4oc4cc(O)ccc34)c(C(=O)O)c2)C1 [Example 1] (X1-G[Hyp](Isobutyl)[Pro(trans-4-guanidino)][Pro(trans-4-guanidino)][Hyp](Isobutyl)[Pro(trans-4-guanidino)][Pro(trans-4-guanidino)][Hyp](Isobutyl)[Pro(trans-4-guanidino)][Pro(trans-4-guanidino)][Hyp](Isobutyl)[Pro(trans-4-guanidino)][Pro(trans-4-guanidino)][Hyp](Isobutyl)-NH2)
2 µM: S. aureus RN 4220 | S. aureus NRS 384 [2]; NRS 384 | P. aeruginosa 50573 [7]; 50573 | E. cloacae 1134 [8]; 1134 | S. aureus NRS 383 [9]; NRS 383 | S. aureus NRS 382 [10]; NRS 382 | VRSA 5 [13] | VRSA 10 [14] | P. aeruginosa 31040 [16]; 31040 | P. aeruginosa 31041 [17]; 31041 | L. monocytogenes 191112 [20]; 191112
1 µM: S. flexneri 1a | E. faecium 700221 [1]; 700221 | K. pneumonia NR 41928 [5] | S. aureus ATCC 6538 [11]; ATCC 6538 | S. epidermidis NRS 101 [12]; NRS 101 | A baumannii 19606 [19]; 19606 | S. enteritidis [21] | E. coli 21922 [22]; 21922 | S. typhimurium LT2 [23]; LT2
4 µM: K. pneumonia NR 41920 [4] | P. aeruginosa 48982 [15]; 48982
0.5 µM: A. baumannii 1605 [6]; 1605 | A. baumannii 1747 [18]; 1747
8 µM: K. pneumoniae 1706 [3]; 1706

CN[C@H](CC(C)C)C(=O)N[C@H]1C(=O)N[C@@H](CC(N)=O)C(=O)N[C@H]2C(=O)N[C@H]3C(=O)N[C@H](C(=O)N[C@H](C(=O)O)c4cc(O)cc(O)c4-c4cc3ccc4O)[C@H](O)c3ccc(c(Cl)c3)Oc3cc2cc(c3O[C@@H]2O[C@H](CO)[C@@H](O)[C@H](O)[C@H]2O[C@H]2C[C@](C)(N)[C@H](O)[C@H](C)O2)Oc2ccc(cc2Cl)[C@H]1O [Vancomycin, vancomycin]
1 µM: S. aureus NRS 382 [33] | L. monocytogenes 191112 [43]
0.5 µM: S. aureus RN 4220; Staphylococcus aureus, RN4220 | S. aureus NRS 384 [25] | S. aureus ATCC 6538 [34]
8 µM: A. baumannii 1605 [29]
> 32 µM: S. flexneri 1a; Shigella flexneri | E. faecium 700221 [24] | K. pneumoniae 1706 [26] | K. pneumonia NR 41920 [27] | K. pneumonia NR 41928 [28] | P. aeruginosa 50573 [30] | E. cloacae 1134 [31] | VRSA 10 [37] | P. aeruginosa 48982 [38] | P. aeruginosa 31040 [39] | P. aeruginosa 31041 [40] | A. baumannii 1747 [41] | S. enteritidis [44] | E. coli 21922 [45] | S. typhimurium LT2 [46]
2 µM: S. epidermidis NRS 101 [35]
4 µM: S. aureus NRS 383 [32] | VRSA 5 [36]
32 µM: A baumannii 19606 [42]

CC(C)CO[C@@H]1C[C@@H](C(=O)N2C[C@H](OCCCNC(=N)N)C[C@H]2C(=O)N2C[C@H](OCCCNC(=N)N)C[C@H]2C(=O)N2C[C@H](OCC(C)C)C[C@H]2C(=O)N2C[C@H](OCCCNC(=N)N)C[C@H]2C(=O)N2C[C@H](OCCCNC(=N)N)C[C@H]2C(=O)N2C[C@H](OCC(C)C)C[C@H]2C(=O)N2C[C@H](OCCCNC(=N)N)C[C@H]2C(=O)N2C[C@H](OCCCNC(=N)N)C[C@H]2C(=O)N2C[C@H](OCC(C)C)C[C@H]2C(=O)N2C[C@H](OCCCNC(=N)N)C[C@H]2C(=O)N2C[C@H](OCCCNC(=N)N)C[C@H]2C(=O)N2C[C@H](OCC(C)C)C[C@H]2C(N)=O)N(C(=O)CNC(=O)c2ccc(-c3c4ccc(=O)cc-4oc4cc(O)ccc34)c(C(=O)O)c2)C1 [Example P14-LRR] (X1-G[Hyp](Isobutyl)[Hyp](Propyl(3-guanidino))[Hyp](Propyl(3-guanidino))[Hyp](Isobutyl)[Hyp](Propyl(3-guanidino))[Hyp](Propyl(3-guanidino))[Hyp](Isobutyl)[Hyp](Propyl(3-guanidino))[Hyp](Propyl(3-guanidino))[Hyp](Isobutyl)[Hyp](Propyl(3-guanidino))[Hyp](Propyl(3-guanidino))[Hyp](Isobutyl)-NH2; N-terminus and C-terminus assumed)
32 µM: K. pneumonia NR 41920 [4] | E. cloacae 1134 [8]; 1134 | S. aureus NRS 383 [9]; NRS 383 | S. aureus NRS 382 [10]; NRS 382 | P. aeruginosa 48982 [15]; 48982 | P. aeruginosa 31040 [16]; 31040 | P. aeruginosa 31041 [17]; 31041
16 µM: S. aureus NRS 384 [2]; NRS 384 | P. aeruginosa 50573 [7]; 50573 | S. aureus ATCC 6538 [11]; ATCC 6538 | S. typhimurium LT2 [23]; LT2
4 µM: S. enteritidis [21] | E. coli 21922 [22]; 21922
2 µM: E. faecium 700221 [1]; 700221 | S. epidermidis NRS 101 [12]; NRS 101 | A baumannii 19606 [19]; 19606
>32 µM: K. pneumoniae 1706 [3]; 1706 | K. pneumonia NR 41928 [5]
1 µM: A. baumannii 1605 [6]; 1605 | A. baumannii 1747 [18]; 1747
8 µM: L. monocytogenes 191112 [20]; 191112

Reference: patent US10875895B2, “Antibacterial cell-penetrating peptides” (Purdue Research Foundation, priority 2018, dated 2020)
